Laboratory results from ChEMBL document CHEMBL5053557, “Discovery of Novel Dual-Target Inhibitor of Bromodomain-Containing Protein 4/Casein Kinase 2 Inducing Apoptosis and Autophagy-Associated Cell Death for Triple-Negative Breast Cancer Therapy” (J Med Chem, 2021).
The source made the active and inactive calls. No cut-off for these calls is given here.

Key:
MDA-MB-468 = test: Antiproliferative activity against human MDA-MB-468 cells incubated for 24 hrs by MTT assay; type: functional, cell-based; details: MDA-MB-468, 24 h
MDA-MB-231 [1] = test: cells; details: Homo sapiens, MDA-MB-231, 24 h
Mus musculus = test: Toxicity in nude BALB/c mouse xenografted with human MDA-MB-231 cells assessed as change in body weight at 50 mg/kg, po containing 1:1 compound : JQ-1 ratio administered once daily for 19 days and measured every 3 days; type: organism-based; details: in vivo, 456 h, time 19 day
MDA-MB-231 [2] = test: Antitumor activity against human MDA-MB-231 cells xenografted in po dosed nude BALB/c mouse assessed as tumor growth inhibition at 1:1 JQ-1 : compound ratio administered once daily for 19 days and measured every 3 days; type: functional, organism-based; details: dose 50.0 mg/kg, time 19.0 day

Row | SMILES | IC50 (MDA-MB-468) | IC50 (MDA-MB-231 [1]) | Activity (Mus musculus) | Activity (MDA-MB-231 [2])
1 | COc1cc(OC)c2c(=O)[nH]c(-c3cc(C)c(OCC(=O)Nc4ccc(N5CCN(C)CC5)c(F)c4)c(C)c3)nc2c1 | 8.33 µM | 5.72 µM | – | –
2 | COc1ccc2nc(-c3ccc(NC(C)=O)cc3)[nH]c(=O)c2c1 | 41.2 µM | > 50 µM | – | –
3 | CC(=O)Nc1ccc(-c2nc3ccccc3c(=O)[nH]2)cc1 | > 50 µM | > 50 µM | – | –
4 | COc1cc(OC)c2c(=O)[nH]c(-c3cc(C)c(OCC(=O)Nc4ccc(N5CCOCC5)cc4)c(C)c3)nc2c1 | 9.49 µM | 8.23 µM | – | –
5 | COc1cc(OC)c2c(=O)[nH]c(-c3cc(C)c(OCC(=O)NC4CCN(C)CC4)c(C)c3)nc2c1 | 15.6 µM | 17.2 µM | – | –
6 | COc1cc(OC)c2c(=S)cc(-c3cc(C)cc(C)c3)oc2c1 | > 50 µM | > 50 µM | – | –
7 | COc1cc(OC)c2c(=O)[nH]c(-c3cc(C)c(OCC(=O)Nc4nc5ccccc5[nH]4)c(C)c3)nc2c1 | 30.3 µM | > 50 µM | – | –
8 | COc1ccc2nc(-c3ccc(C)cc3)[nH]c(=O)c2c1 | 30.4 µM | > 50 µM | – | –
9 | CN1CCN(c2ccc(NC(=O)COc3ccc(-c4nc5cc(F)ccc5c(=O)[nH]4)cc3)cc2Cl)CC1 | 7.51 µM | 6.94 µM | – | –
10 | O=c1cc(-c2ccccc2)oc2ccc(Br)cc12 [6-BROMOFLAVONE] | 48.2 µM | 33.5 µM | – | –
11 | COc1cc(OC)c2c(=O)[nH]c(-c3ccc(OCC(=O)Nc4ccc(N5CCOCC5)c(Cl)c4)cc3)nc2c1 | 8.29 µM | 4.52 µM | – | –
12 | COc1cccc(-c2cc(=S)c3cc(OC)ccc3o2)c1 | > 50 µM | > 50 µM | – | –
13 | Cc1ccc(-c2nc3ccccc3c(=O)[nH]2)cc1 | > 50 µM | > 50 µM | – | –
14 | COc1cc(OC)c2c(=O)[nH]c(-c3ccc(OCC(=O)Nc4ccccc4N4CCN(C)CC4)cc3)nc2c1 | 11.5 µM | 17.3 µM | – | –
15 | COc1cc(OC)c2c(=O)[nH]c(-c3ccc(OCC(=O)Nc4ccc(N5CCCC5)cc4)cc3)nc2c1 | 7.82 µM | 19.6 µM | – | –
16 | COc1cc(OC)c2c(=O)[nH]c(-c3ccc(OCC(=O)Nc4ccc(N5CCN(C)CC5)cc4)cc3)nc2c1 | 8.8 µM | 6.46 µM | – | –
17 | COc1cc(OC)c2c(=O)[nH]c(-c3ccc(OCC(=O)NCC4CCOCC4)cc3)nc2c1 | 26.6 µM | 21.2 µM | – | –
18 | COc1cc(OC)c2c(=O)[nH]c(-c3cc(Br)c(OCC(=O)NC4CCN(C)CC4)c(Br)c3)nc2c1 | 14.8 µM | 16.9 µM | – | –
19 | COc1cc(OC)c2c(=O)[nH]c(-c3ccccc3OC)nc2c1 | 44.6 µM | > 50 µM | – | –
20 | COc1cc(OC)c2c(=O)[nH]c(-c3cc(C)c(OCC(=O)NCC4CCOCC4)c(C)c3)nc2c1 | 25.6 µM | 23.6 µM | – | –
21 | COc1cc(OC)c2c(=O)[nH]c(-c3ccc(OCC(=O)Nc4cccc(N5CCOCC5)c4)cc3)nc2c1 | 17.8 µM | 15.3 µM | – | –
22 | COc1cc(OC)c2c(=O)[nH]c(-c3cc(C)c(OCC(=O)Nc4ccc(N5CCN(C)CC5)c(Cl)c4)c(C)c3)nc2c1 | 4.58 µM | 3.49 µM | – | –

Row | SMILES | IC50 (MDA-MB-468) | IC50 (MDA-MB-231 [1]) | Activity (Mus musculus) | Activity (MDA-MB-231 [2])
23 | CN1CCN(c2ccc(NC(=O)COc3ccc(-c4nc5cc(Cl)ccc5c(=O)[nH]4)cc3)cc2Cl)CC1 | 15.3 µM | 14.4 µM | – | –
24 | COc1cc(OC)c2c(=O)[nH]c(-c3cccc(OCC(=O)O)c3)nc2c1 | 22.7 µM | 25.6 µM | – | –
25 | COc1cc(OC)c2c(=O)[nH]c(-c3cc(C)c(OCC(=O)Nc4ccc(N5CCCCC5)cc4)c(C)c3)nc2c1 | 9.43 µM | 13.4 µM | – | –
26 | COc1cc(OC)c2c(=O)[nH]c(-c3cc(C)c(OCC(=O)NC4CCN(C(=O)OC(C)(C)C)CC4)c(C)c3)nc2c1 | 17.2 µM | 22.4 µM | – | –
27 | COc1ccc2nc(-c3cc(OC)c(O)c(OC)c3)[nH]c(=O)c2c1 | 43.3 µM | > 50 µM | – | –
28 | COC(=O)COc1ccc(-c2nc3cc(OC)cc(OC)c3c(=O)[nH]2)cc1 | 13.8 µM | 22 µM | – | –
29 | COc1ccc2oc(-c3cc(C)cc(C)c3)cc(=O)c2c1 | > 50 µM | 45.7 µM | – | –
30 | COc1cc(OC)c2c(=O)[nH]c(-c3ccc(N)cc3)nc2c1 | > 50 µM | 36.5 µM | – | –
31 | COc1cc(OC)c2c(=O)[nH]c(-c3ccc(OCC(=O)Nc4ccc(N5CCN(C)CC5)c(F)c4)cc3)nc2c1 | 7.55 µM | 6.3 µM | – | –
32 | COc1cc(OC)c2c(=O)[nH]c(-c3ccc(OCC(=O)Nc4cccc(N5CCN(C)CC5)c4)cc3)nc2c1 | 8.07 µM | 13.2 µM | – | –
33 | Cc1ccc2nc(-c3ccc(OCC(=O)Nc4ccc(N5CCN(C)CC5)c(Cl)c4)cc3)[nH]c(=O)c2c1 | 16.2 µM | 17.4 µM | – | –
34 | COc1cc(OC)c2c(=O)[nH]c(-c3ccc(OCC(=O)O)cc3)nc2c1 | 18.6 µM | 19.7 µM | – | –
35 | COc1cc(OC)c2c(=O)[nH]c(-c3ccc(OCC(=O)NC4CCN(C(=O)OC(C)(C)C)CC4)cc3)nc2c1 | 16.6 µM | 13.1 µM | – | –
36 | O=C(O)c1ccc2c(c1)nc(Nc1cccc(Cl)c1)c1ccncc12 [SILMITASERTIB] | – | – | Toxic | Active
37 | COc1cc(OC)c2c(=O)[nH]c(-c3ccc(C(=O)O)cc3)nc2c1 | 8.33 µM | 21.1 µM | – | –
38 | COc1cc(OC)c2c(=O)[nH]c(-c3cc(Br)c(OCC(=O)Nc4ccc(N5CCN(C)CC5)cc4)c(Br)c3)nc2c1 | 15.8 µM | 13.6 µM | – | –
39 | COc1cc(OC)c2c(=O)[nH]c(-c3ccc(NC(C)=O)cc3)nc2c1 | 24.7 µM | 27.3 µM | – | –
40 | COc1ccc2oc(-c3ccccc3)cc(=S)c2c1 | > 50 µM | > 50 µM | – | –
41 | COc1cc(-c2nc3ccccc3c(=O)[nH]2)cc(OC)c1O | > 50 µM | > 50 µM | – | –
42 | COc1cc(OC)c2c(=O)[nH]c(-c3cc(C)c(Br)c(C)c3)nc2c1 | 29.6 µM | 25.2 µM | – | –
43 | COc1cc(OC)c2c(=O)[nH]c(-c3cc(C)c(OCC(=O)Nc4ccc(N5CCOCC5)c(Cl)c4)c(C)c3)nc2c1 | 6.31 µM | 10.2 µM | – | –
44 | COc1cc(OC)c2c(=O)cc(-c3cc(C)cc(C)c3)oc2c1 | 39.6 µM | 47.8 µM | – | –

Row | SMILES | IC50 (MDA-MB-468) | IC50 (MDA-MB-231 [1]) | Activity (Mus musculus) | Activity (MDA-MB-231 [2])
45 | COc1cc(OC)c2c(=O)[nH]c(-c3cc(C)c(OCC(=O)Nc4ccc(N5CCN(C)CC5)cc4)c(C)c3)nc2c1 | 12.6 µM | 10.8 µM | – | –
46 | COc1cc(OC)c2c(=O)[nH]c(-c3ccc(OCC(=O)Nc4ccc(N5CCOCC5)cc4)cc3)nc2c1 | 9.54 µM | 7.67 µM | – | –
47 | COc1cc(OC)c2c(=O)[nH]c(-c3ccc(O)c(Br)c3)nc2c1 | 22.3 µM | 23.2 µM | – | –
48 | COc1cc(OC)c2c(=O)[nH]c(-c3cc(C)c(OCC(=O)Nc4ccc(N5CCOCC5)c(F)c4)c(C)c3)nc2c1 | 9.16 µM | 10.3 µM | – | –
49 | COc1cc(OC)c2c(=O)[nH]c(-c3ccc(OCC(=O)Nc4ccc(N5CCCCC5)cc4)cc3)nc2c1 | 11.6 µM | 10.3 µM | – | –
50 | COc1cc(OC)c2c(=O)[nH]c(-c3ccc(OCC(=O)Nc4cc(OC)c(OC)c(OC)c4)cc3)nc2c1 | 15 µM | 23.4 µM | – | –
51 | COc1cc(OC)c2c(=O)[nH]c(-c3ccc(OCC(=O)Nc4ccc(N5CCOCC5)c(F)c4)cc3)nc2c1 | 8.58 µM | 7.09 µM | – | –
52 | COc1cc(OC)c2c(=O)[nH]c(-c3cc(C)c(O)c(C)c3)nc2c1 | 19.3 µM | 17.5 µM | – | –
53 | COc1cc(OC)c2c(=O)[nH]c(-c3ccccc3OCC(=O)O)nc2c1 | 18.6 µM | 36.7 µM | – | –
54 | COc1cc(OC)c2c(=O)[nH]c(-c3ccc(C)cc3)nc2c1 | 38.4 µM | 45.6 µM | – | –
55 | COc1cc(OC)c2c(=O)[nH]c(-c3cc(C)c(OCC(=O)Nc4cccc(N5CCN(C)CC5)c4)c(C)c3)nc2c1 | 15.7 µM | 14.6 µM | – | –
56 | COc1cc(OC)c2c(=O)[nH]c(-c3cccc(C)c3)nc2c1 | 39.4 µM | 43.9 µM | – | –
57 | COc1cccc(-c2nc3cc(OC)cc(OC)c3c(=O)[nH]2)c1 | 29.3 µM | 38.3 µM | – | –
58 | COc1cc(OC)c2c(=O)[nH]c(-c3cc(C)c(OCC(=O)Nc4cc(OC)c(OC)c(OC)c4)c(C)c3)nc2c1 | 16.6 µM | 24.4 µM | – | –
59 | COc1cccc(-c2cc(=O)c3cc(OC)ccc3o2)c1 [6,3'-DIMETHOXYFLAVONE] | > 50 µM | > 50 µM | – | –
60 | COc1cc(OC)c2c(=O)[nH]c(-c3cc(Br)c(OCC(=O)Nc4ccc(N5CCOCC5)cc4)c(Br)c3)nc2c1 | 15.1 µM | 13.2 µM | – | –
61 | CN1CCN(c2ccc(NC(=O)COc3ccc(-c4nc5ccc(Cl)cc5c(=O)[nH]4)cc3)cc2Cl)CC1 | 6.23 µM | 5.21 µM | – | –
62 | COc1cc(OC)c2c(=O)[nH]c(-c3cc(Br)c(OCC(=O)Nc4ccc(N5CCOCC5)c(Cl)c4)c(Br)c3)nc2c1 | 5.53 µM | 4.02 µM | – | –
63 | COc1cc(OC)c2c(=O)[nH]c(-c3cc(Br)c(OCC(=O)Nc4ccc(N5CCCCC5)cc4)c(Br)c3)nc2c1 | 15.6 µM | 16.4 µM | – | –
64 | COc1cc(OC)c2c(=O)[nH]c(-c3cc(C)c(OCC(=O)Nc4cccc(N5CCOCC5)c4)c(C)c3)nc2c1 | 13.4 µM | 11.3 µM | – | –
